Source: patent US20090221069A1, “METHOD FOR AUGMENTING THE ABILITY OF T-CELLS AND OTHER CELLS FOR FIGHTING DISEASE AND INVADE DISEASED ORGANS, FOR ELEVATING CD3 ZETA AND TNF-ALPHA EXPRESSION IN T-CELLS, AND MIXING T-CELL BOOSTING AND KIT PARTICULARLY USEFUL IN SUCH METHOD” (priority 2005, published 2009)
Like-named read-outs stand apart in the source and are kept apart here. No end group written: not given here.

Legend:
Normal human T-cells = format: cell-based
Procedure: Normal human T-cells, isolated from fresh peripheral blood lymphocytes, were treated with 10 nM of neurotransmitters: either GnRH-II or dopamine (30 min or 24 hr at 37° C.). Following this neurotransmitter treatment, the T-cells were washed with phosphate-buffered saline (PBS) and […] with paraformaldehyde (PFA) for 20 min at room temperature (1×10^6 cells resuspended in 50 μl PBS+100 μl 0.5% PFA). The T-cells were then washed again with PBS and subjected to single immunofluorescence staining, using a mouse anti-human TCR/CD3zeta chain subunit (also called CD247) mAb (Serotec) at 1:100 dilution/1×10^6 cells, diluted in 10 μg/ml digitonin (Sigma) cold solution, for 30 min on ice. For isotype control, cells were stained with normal mouse serum (Jackson Immunoresearch Laboratories). The cells were then stained with a fluorescein isothiocyanate (FITC)-conjugated anti-mouse IgG (100 μl of 1:100 dilution; Jackson). Cells stained with the second Ab only served as additional negative controls. Fluorescence profiles were recorded in a FACSort.

[1] = test system: human cancer growing in SCID mice; format: in vivo
[2] = test system: normal resting human T-cells; assay: Cytokine (TNFα, IFNγ, IL-10, IL-4) secretion by resting T-cells, sandwich ELISA; format: cell-based; details: for cytokine secretion profile (TNFα, IFNγ, IL-4, IL-10): data not shown; for TNFα secretion in resting normal human T-cells: highest concentration used (DTX-K 100 nM), FIG. 18a
Procedure: Human T-cells: Normal human T-cells were purified from peripheral blood of healthy donors as described (19, 23, 61), and the resulting cell population, containing ≧90% T-cells, was suspended in RPMI medium supplemented with 10% FCS, 1% LGlutamine and antibiotics (Biological Industries, Bet Haemek, Israel) and maintained at 2×10^6 cells/ml (37° C./5% CO2).
Determination of TNFα, IFNγ, IL-10 and IL-4 by ELISA: Freshly-purified normal resting human T-cells (2×10^6/ml) were incubated in 24-well plates (Costar, Corning, N.Y.) and the various channel blockers were added. Importantly, no other stimulating molecule (e.g. phorbol esters, antigens, anti-CD3/CD28 mAbs) was added. Cytokine […] levels were measured in supernatants after 24 hr for TNFα and IFNγ and after 72 hr for IL-10 and IL-4, by quantitative sandwich ELISA (R&D, Minneapolis, Minn.), according to the manufacturer's instructions.

ion channel = details: from manufacturer's data sheets and/or the literature; cited from earlier work
human T-cells = details: data not shown
[3] = SCID mice, preliminary evidence

Molecule: NCCc1ccc(O)c(O)c1 [dopamine]
- number (percentage) of cells expressing CD3zeta (Normal human T-cells): clear increase
- number of T-cells expressing CD3zeta, longer-term exposure versus 30 minutes (Normal human T-cells): significantly more pronounced
- overall in vivo activity of human tumor-specific T-cells against human cancer (cancer rejection) ([1]; mouse, in vivo): augmented significantly

Molecule: CCCCCCCCCCCCCC(=O)O[C@@H]1[C@@H](C)[C@@]2(O)[C@@H](C=C(CO)C[C@]3(O)C(=O)C(C)=C[C@@H]23)[C@@H]2C(C)(C)[C@]12OC(C)=O [PMA]
- cytokine secretion profile (TNFα, IFNγ, IL-4, IL-10) [2]: increased secretion of TNFα, IFNγ, IL-4 and IL-10

Molecule: GnRH-II (QHWSHGWYPG; ends and bridges not checked; UniProt O43555 24-33, looked up)
- intensity of CD3zeta expression (number of CD3zeta per T-cell) (Normal human T-cells; 10 nM, 30 minutes exposure): very significant increase
- number (percentage) of cells expressing CD3zeta (Normal human T-cells; 10 nM, 30 minutes exposure, no other molecules): very significant increase
- overall in vivo activity of human tumor-specific T-cells against human cancer (cancer rejection) [1, 3]: augmented significantly

Molecule: Kaliotoxin
- TNFα secretion in resting normal human T-cells ([2]; 24 hours exposure): somewhat weaker effect
- effective concentrations (ion channel): 0.001 to 0.1 µM

Molecule: Dendrotoxin-K
- dose dependence of TNFα secretion triggering ([2]; 24 hours exposure, FIG. 18b): dose dependent
- TNFα secretion in resting normal human T-cells ([2]; 24 hours exposure): marked TNFα secretion
- TNFα secretion by T-cells from six different individuals ([2]; 24 hr, 100 nM, FIG. 18c-h): triggered marked TNFα secretion
- cytokine secretion profile (TNFα, IFNγ, IL-4, IL-10) [2]: selectively increased only TNFα secretion
- effect on cell survival of human T-cells (human T-cells): no significant effect
- effect on proliferation of human T-cells (human T-cells): no significant effect

Molecule: N[C@@H](CCC(=O)O)C(=O)O [glutamate]
- overall in vivo activity of human tumor-specific T-cells against human cancer (cancer rejection) [1, 3]: augmented significantly

Molecule: O=C(O)c1cc([N+](=O)[O-])ccc1NCCCc1ccccc1 [NPPB]
- effective concentrations (ion channel): 100 to 200 µM

Molecule: C=C[C@H]1C[N@@]2CC[C@H]1C[C@H]2[C@H](O)c1ccnc2ccc(OC)cc12 [Quinine]
- TNFα secretion in resting normal human T-cells ([2]; 24 hours exposure): somewhat weaker effect
- effective concentrations (ion channel): 1 to 10 µM
